Consider 20 molecules from patent US20250195484A1, “CEREBLON LIGANDS AND USES THEREOF” (priority 2022, published 2025).

T2 sequence (Q09472 whole entry): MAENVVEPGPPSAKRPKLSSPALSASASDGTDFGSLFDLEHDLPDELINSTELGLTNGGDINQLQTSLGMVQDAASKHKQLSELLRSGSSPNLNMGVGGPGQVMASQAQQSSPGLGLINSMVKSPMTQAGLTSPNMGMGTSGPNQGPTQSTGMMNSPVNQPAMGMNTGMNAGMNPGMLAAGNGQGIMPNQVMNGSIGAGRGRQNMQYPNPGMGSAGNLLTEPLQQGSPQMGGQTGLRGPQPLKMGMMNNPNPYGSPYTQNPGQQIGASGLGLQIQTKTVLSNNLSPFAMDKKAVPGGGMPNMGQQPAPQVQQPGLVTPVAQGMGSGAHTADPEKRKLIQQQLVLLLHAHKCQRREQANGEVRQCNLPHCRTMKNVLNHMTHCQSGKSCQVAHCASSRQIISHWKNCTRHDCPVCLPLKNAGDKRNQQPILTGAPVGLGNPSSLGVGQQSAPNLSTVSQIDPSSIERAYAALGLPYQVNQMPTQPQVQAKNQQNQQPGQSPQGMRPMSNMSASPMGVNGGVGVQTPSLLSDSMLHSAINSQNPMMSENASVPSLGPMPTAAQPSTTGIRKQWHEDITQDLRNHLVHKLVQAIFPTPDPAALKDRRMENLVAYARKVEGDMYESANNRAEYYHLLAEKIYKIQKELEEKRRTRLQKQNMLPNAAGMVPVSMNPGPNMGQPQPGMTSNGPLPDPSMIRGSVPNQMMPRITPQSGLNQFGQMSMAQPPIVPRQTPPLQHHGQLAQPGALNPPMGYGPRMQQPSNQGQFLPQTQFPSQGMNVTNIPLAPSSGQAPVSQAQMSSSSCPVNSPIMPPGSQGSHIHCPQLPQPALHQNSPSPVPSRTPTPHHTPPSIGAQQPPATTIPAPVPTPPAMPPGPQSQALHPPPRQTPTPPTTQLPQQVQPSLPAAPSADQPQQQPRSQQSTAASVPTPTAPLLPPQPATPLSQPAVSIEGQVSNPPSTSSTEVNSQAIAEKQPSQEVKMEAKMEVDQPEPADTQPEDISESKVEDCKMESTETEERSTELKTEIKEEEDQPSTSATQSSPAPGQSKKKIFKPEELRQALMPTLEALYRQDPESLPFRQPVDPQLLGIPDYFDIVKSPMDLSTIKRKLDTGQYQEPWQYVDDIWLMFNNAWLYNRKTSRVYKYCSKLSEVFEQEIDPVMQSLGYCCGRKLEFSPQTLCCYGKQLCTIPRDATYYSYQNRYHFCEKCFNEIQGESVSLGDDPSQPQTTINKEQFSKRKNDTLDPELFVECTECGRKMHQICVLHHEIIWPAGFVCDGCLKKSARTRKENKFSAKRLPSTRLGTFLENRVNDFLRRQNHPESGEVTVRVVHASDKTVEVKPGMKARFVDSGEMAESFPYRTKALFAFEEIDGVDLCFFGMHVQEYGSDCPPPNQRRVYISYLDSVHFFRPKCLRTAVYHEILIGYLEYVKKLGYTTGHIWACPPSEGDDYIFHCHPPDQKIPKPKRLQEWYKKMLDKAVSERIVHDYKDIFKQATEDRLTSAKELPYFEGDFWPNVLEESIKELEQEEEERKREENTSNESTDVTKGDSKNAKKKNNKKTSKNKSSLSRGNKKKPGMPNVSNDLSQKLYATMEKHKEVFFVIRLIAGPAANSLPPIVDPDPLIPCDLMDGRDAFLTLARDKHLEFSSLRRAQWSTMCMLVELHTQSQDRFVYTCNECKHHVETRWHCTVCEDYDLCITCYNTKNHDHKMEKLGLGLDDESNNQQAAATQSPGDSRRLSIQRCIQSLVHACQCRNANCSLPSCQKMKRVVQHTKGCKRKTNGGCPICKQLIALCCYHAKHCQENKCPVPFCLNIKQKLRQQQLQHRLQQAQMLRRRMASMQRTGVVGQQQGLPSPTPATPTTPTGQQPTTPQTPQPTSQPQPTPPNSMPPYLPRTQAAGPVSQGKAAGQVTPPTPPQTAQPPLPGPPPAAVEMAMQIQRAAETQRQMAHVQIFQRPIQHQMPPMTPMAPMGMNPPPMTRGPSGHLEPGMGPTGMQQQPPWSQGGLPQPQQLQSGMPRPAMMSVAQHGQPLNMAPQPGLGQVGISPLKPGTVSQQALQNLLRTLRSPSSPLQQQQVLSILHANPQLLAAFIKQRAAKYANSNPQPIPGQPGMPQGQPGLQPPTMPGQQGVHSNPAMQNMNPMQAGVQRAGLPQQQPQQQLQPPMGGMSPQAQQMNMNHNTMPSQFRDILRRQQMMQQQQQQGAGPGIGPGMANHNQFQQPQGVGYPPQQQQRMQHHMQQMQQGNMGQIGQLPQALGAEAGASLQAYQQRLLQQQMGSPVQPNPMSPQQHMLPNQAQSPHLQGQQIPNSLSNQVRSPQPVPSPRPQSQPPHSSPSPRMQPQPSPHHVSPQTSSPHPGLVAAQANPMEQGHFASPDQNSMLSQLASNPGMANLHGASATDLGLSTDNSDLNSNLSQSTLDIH
CRBN/DDB1, sequence (Q96SW2 whole entry): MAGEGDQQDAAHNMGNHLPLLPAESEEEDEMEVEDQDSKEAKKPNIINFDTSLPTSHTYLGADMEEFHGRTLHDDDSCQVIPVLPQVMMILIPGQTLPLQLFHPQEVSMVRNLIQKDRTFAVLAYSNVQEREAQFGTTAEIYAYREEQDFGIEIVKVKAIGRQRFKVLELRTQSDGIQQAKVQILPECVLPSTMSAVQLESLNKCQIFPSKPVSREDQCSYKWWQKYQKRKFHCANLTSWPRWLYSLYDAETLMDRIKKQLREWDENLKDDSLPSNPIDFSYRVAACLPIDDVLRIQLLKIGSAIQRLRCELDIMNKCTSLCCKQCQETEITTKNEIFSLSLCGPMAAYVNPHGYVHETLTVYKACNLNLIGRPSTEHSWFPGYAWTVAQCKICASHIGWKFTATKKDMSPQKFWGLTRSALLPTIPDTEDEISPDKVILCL
CRBN/DDB1, sequence (Q16531 whole entry, further chain): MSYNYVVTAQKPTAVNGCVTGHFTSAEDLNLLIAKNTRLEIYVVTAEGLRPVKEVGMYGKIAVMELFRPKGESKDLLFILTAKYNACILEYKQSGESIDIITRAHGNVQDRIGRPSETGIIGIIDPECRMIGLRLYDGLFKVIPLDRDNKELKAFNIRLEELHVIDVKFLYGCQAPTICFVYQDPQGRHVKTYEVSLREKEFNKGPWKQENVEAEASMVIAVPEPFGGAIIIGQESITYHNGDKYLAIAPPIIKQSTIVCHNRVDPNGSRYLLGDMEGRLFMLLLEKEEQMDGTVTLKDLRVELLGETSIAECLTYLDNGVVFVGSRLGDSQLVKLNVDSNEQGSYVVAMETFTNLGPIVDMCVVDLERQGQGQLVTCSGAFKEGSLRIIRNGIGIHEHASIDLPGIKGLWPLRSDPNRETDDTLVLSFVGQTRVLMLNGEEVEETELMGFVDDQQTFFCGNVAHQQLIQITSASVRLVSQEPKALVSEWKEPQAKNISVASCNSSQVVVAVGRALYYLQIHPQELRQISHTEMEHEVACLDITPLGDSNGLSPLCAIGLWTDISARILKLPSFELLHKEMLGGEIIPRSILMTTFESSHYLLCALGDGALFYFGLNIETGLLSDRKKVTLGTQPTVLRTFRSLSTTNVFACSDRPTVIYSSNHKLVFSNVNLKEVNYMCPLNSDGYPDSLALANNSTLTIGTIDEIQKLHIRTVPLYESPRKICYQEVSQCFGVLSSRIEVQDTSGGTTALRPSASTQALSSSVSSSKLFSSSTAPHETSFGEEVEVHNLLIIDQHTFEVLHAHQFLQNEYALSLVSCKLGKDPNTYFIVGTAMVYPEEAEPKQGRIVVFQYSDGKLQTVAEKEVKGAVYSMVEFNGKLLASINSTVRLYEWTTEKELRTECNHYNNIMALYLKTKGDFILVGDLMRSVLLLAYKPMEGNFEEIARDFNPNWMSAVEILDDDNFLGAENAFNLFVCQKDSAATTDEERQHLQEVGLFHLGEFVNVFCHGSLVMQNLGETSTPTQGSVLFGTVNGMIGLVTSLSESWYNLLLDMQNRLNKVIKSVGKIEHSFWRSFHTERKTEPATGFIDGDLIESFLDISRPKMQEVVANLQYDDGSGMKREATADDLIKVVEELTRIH

The target of one assay is T1, STAT3 (Homo sapiens, UniProt P40763).
T1 construct: host or cells: HeLa (STAT3-HiBiT CRISPR knock-in clone)
T1 sequence (P40763 whole entry): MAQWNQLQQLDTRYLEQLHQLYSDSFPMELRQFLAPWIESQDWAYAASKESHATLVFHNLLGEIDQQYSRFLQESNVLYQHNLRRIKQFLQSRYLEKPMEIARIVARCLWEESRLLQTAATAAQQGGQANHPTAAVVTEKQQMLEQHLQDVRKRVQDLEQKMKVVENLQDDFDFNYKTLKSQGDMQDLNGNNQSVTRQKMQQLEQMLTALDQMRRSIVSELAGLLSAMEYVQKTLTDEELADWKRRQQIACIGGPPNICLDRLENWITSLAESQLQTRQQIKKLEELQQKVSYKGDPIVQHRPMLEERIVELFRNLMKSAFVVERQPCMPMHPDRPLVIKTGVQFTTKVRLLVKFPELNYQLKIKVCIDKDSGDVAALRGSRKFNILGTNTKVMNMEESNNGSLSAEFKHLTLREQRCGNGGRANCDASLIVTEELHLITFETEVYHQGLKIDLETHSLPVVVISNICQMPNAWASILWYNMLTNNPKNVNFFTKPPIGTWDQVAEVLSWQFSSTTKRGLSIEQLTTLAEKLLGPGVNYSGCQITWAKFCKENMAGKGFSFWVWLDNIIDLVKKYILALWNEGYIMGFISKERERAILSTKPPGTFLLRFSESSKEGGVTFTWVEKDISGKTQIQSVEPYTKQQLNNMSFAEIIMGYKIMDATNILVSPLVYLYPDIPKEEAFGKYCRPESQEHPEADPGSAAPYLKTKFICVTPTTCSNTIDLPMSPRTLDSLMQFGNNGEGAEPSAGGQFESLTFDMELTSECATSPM
Nature of the assay: STAT3 degradation HiBiT assay (STAT3-HIBIT KI HeLa). To be noted: STAT3-HIBIT KI HeLa cells, 24 hours. The class given is cell-based. As for the experimental part:
STAT3-HIBIT KI HeLa cell line was purchased from Promega. This cell line is a clone created by using CRISPR-Cas9 to fuse HiBIT to the 3′ end of STAT3 in HeLa cells. DMEM medium and FBS were purchased from Gibco/Thermo Fisher Scientific. STAT3 degradation was determined based on quantification of luminescent signal using Nano-Glo HiBIT Lytic Detection System. In a typical procedure, cells seeded at 20000 cells per well in 96-well white plates (Corning) were incubated with serially diluted compounds for 24 hours at 37° C. with 5% CO2. At the end of treatment, Nano-Glo HiBIT Lytic Detection reagents was added to the wells and luminescence was acquired on TECAN PSARK plate reader. Untreated cells were used as control. Data points were fit with a four-parameter equation to generate a concentration-response curve. IC50 values were calculated using a nonlinear regression analysis of the mean±SD from triplicate.
In general terms: HiBiT is a short tag that completes a luciferase, so light tracks the accessible tagged protein.
For orientation: DC50 means the concentration giving 50% degradation. A lower DC50 goes with a more potent degrader. A word on the Dmax: it is the largest share of the target that was removed. Lower therefore signals a partial loss of target. Turning to `NC(=O)CC[C@H](NC(=O)[C@@H]1CC[C@@H]2CCN(C(=O)CCCCC(=O)N3CCC4(CC3)COc3c4ccc4c3CN([C@H]3CCC(=O)NC3=O)C4=O)C[C@H](NC(=O)c3cc4cc(C(F)(F)P(=O)(O)O)ccc4s3)C(=O)N21)C(=O)NC(c1ccccc1)c1ccccc1` [STD 22, ((2-(((5S,8S,10aR)-8-(((S)-5-amino-1-(benzhydrylamino)-1,5-dioxopentan-2-yl)carbamoyl)-3-(6-(7-((S)-2,6-dioxopiperidin-3-yl)-6-oxo-7,8-dihydro-2H,6H-spiro[furo[2,3-e]isoindole-3,4′-piperidin]-1′-yl)-6-oxohexanoyl)-6-oxodecahydropyrrolo[1,2-a][1,5]diazocin-5-yl)carbamoyl)benzo[b]thiophen-5-yl)difluoromethyl)phosphonic acid], the DC50 lay in the range of 1 to 10 µM and the Dmax was below 40%.

A further assay has as its target T2, P300 (Homo sapiens, UniProt Q09472).
T2 construct: endogenous in cells; host or cells: 22Rv1
Nature of the assay: P300 degradation, western blot, 22Rv1. The assay is classed as cell-based. To be noted: 22Rv1, 5 h. As for the experimental part:
(§1) WesternT Blot Analysis. Western blot analysis was performed essentially as described previously. The cells treated with indicated compounds were lysed in Radioimmunoprecipitation Assay Protein Lysis and Extraction Buffer (25 mmol/L Tris.HCl, pH 7.6, 150 mmol/L NaCl, 1% Nonidet P-40, 1% sodium deoxycholate, and 0.1% sodium dodecyl sulfate) containing proteinase inhibitor cocktail (Roche Diagnostics, Mannheim, Germany). Equal amounts of total protein were electrophoresed through 10% SDS-polyacrylamide gels after determination of protein concentration by BCA assay (Fisher Scientific, Pittsburgh, PA). The separated protein bands were transferred onto PVDF membranes (GE Healthcare Life Sciences, Marlborough, MA) and blotted against different antibodies, as indicated. The blots were scanned, and the band intensities were quantified using GelQuant.NET software provided by biochemlabsolutions.com. The relative mean intensity of target proteins was expressed after normalization to the intensity of glyceraldehyde-3-phosphate dehydrogenase bands.
For orientation: A western blot detects proteins with antibodies after separation by electrophoresis.
On to `CC(=O)N1CCc2c(c(N3CCCc4cc(-c5cnn(C)c5)c(C(F)F)cc43)nn2[C@H]2CC[C@H](CN3CCC4(CC3)COc3c4ccc4c3CN([C@H]3CCC(=O)NC3=O)C4=O)CC2)C1` [CPD-004, (S)-3-(1′-(((1r,4S)-4-(5-acetyl-3-(7-(difluoromethyl)-6-(1-methyl-1H-pyrazol-4-yl)-3,4-dihydroquinolin-1(2H)-yl)-4,5,6,7-tetrahydro-1H-pyrazolo[4,3-c]pyridin-1-yl)cyclohexyl)methyl)-6-oxo-6,8-dihydro-2H,7H-spiro[furo[2,3-e]isoindole-3,4′-piperidin]-7-yl)piperidine-2,6-dione], for which the DC50 is below 0.0001 µM and the “P300 Degradation DCmax” value is on record as “A (A (≥90%))”.

For `CC(=O)N1CCc2c(c(N3CCCc4cc(-c5cnn(C)c5)c(C(F)F)cc43)nn2C2CCN(CC(=O)N3CCC4(CC3)COc3c4ccc4c3CN([C@H]3CCC(=O)NC3=O)C4=O)CC2)C1` [CPD-001, (S)-3-(1′-(2-(4-(5-acetyl-3-(7-(difluoromethyl)-6-(1-methyl-1H-pyrazol-4-yl)-3,4-dihydroquinolin-1(2H)-yl)-4,5,6,7-tetrahydro-1H-pyrazolo[4,3-c]pyridin-1-yl)piperidin-1-yl)acetyl)-6-oxo-6,8-dihydro-2H,7H-spiro[furo[2,3-e]isoindole-3,4′-piperidin]-7-yl)piperidine-2,6-dione], the DC50 lay in the range of 0.0001 to 0.001 µM and the “P300 Degradation DCmax” value was “A (A (≥90%))”.

With `CC(=O)N1CCc2c(c(N3CCCc4cc(-c5cnn(C)c5)c(C(F)F)cc43)nn2C2CCN(C(=O)CN3CCC4(CC3)COc3c4ccc4c3CN([C@H]3CCC(=O)NC3=O)C4=O)CC2)C1` [CPD-002, (S)-3-(1′-(2-(4-(5-acetyl-3-(7-(difluoromethyl)-6-(1-methyl-1H-pyrazol-4-yl)-3,4-dihydroquinolin-1(2H)-yl)-4,5,6,7-tetrahydro-1H-pyrazolo[4,3-c]pyridin-1-yl)piperidin-1-yl)-2-oxoethyl)-6-oxo-6,8-dihydro-2H,7H-spiro[furo[2,3-e]isoindole-3,4′-piperidin]-7-yl)piperidine-2,6-dione], the DC50 was below 0.0001 µM and the “P300 Degradation DCmax” value is given as “A (A (≥90%))”.

The next assay has as its target CRBN/DDB1 (Homo sapiens, UniProt Q96SW2). In words: biochemical.
Details: not given
One may read the IC50 as the concentration at which inhibition is half-maximal. `O=C1CCC(N2Cc3c(ccc4c3OCC43CCNC3)C2=O)C(=O)N1` (stereo not drawn) [Compound A9, 3-(6-oxo-6,8-dihydro-2H,7H-spiro[furo[2,3-e]isoindole-3,3′-pyrrolidin]-7-yl)piperidine-2,6-dione] yielded an IC50 of 0.21 µM. That is a sub-micromolar value.

Turning to `O=C1CCC(N2Cc3c(ccc4c3OCC43CCNCC3(F)F)C2=O)C(=O)N1` (stereo not drawn) [Compound A17, 3-(3′,3′-difluoro-6-oxo-6,8-dihydro-2H,7H-spiro[furo[2,3-e]isoindole-3,4′-piperidin]-7-yl)piperidine-2,6-dione], the IC50 was determined as 0.23 µM.

On to `O=C1CC[C@H](NC(=O)c2ccc3c(n2)OCC32CCNCC2)C(=O)N1` [Compound A18, (S)-N-(2,6-dioxopiperidin-3-yl)-2H-spiro[furo[2,3-b]pyridine-3,4′-piperidine]-6-carboxamide], for which the IC50 was above 10000 µM.

`CN1CCC2(CC1)COc1cc3c(cc12)CN(C1CCC(=O)NC1=O)C3=O` (stereo not drawn) [Compound A4, 3-(1′-methyl-7-oxo-5,7-dihydro-2H,6H-spiro[furo[2,3-f]isoindole-3,4′-piperidin]-6-yl)piperidine-2,6-dione] returned an IC50 of 0.096 µM.

As to `O=C1CCC(N2Cc3cc4c(cc3C2=O)CCOC42CCNCC2)C(=O)N1` (stereo not drawn) [Compound A3, 3-(1′-oxo-1′,3′,7′,8′-tetrahydro-2′H-spiro[piperidine-4,5′-pyrano[3,4-f]isoindol]-2′-yl)piperidine-2,6-dione], half-maximal inhibition (IC50) required 0.27 µM.

As for `COc1cc2c(c3c1C(=O)N([C@H]1CCC(=O)NC1=O)C3)OCC21CCNCC1` [Compound A21, (S)-3-(5-methoxy-6-oxo-6,8-dihydro-2H,7H-spiro[furo[2,3-e]isoindole-3,4′-piperidin]-7-yl)piperidine-2,6-dione], the IC50 was found to be 0.17 µM.

The molecule `CC(C)(C)OC(=O)N1CCC2(CC1)COc1cc3c(cc12)CN(C1CCC(=O)NC1=O)C3=O` (stereo not drawn) [Compound A14, tert-butyl 6-(2,6-dioxopiperidin-3-yl)-7-oxo-6,7-dihydro-2H,5H-spiro[furo[2,3-f]isoindole-3,4′-piperidine]-1′-carboxylate] displayed a half-inhibitory concentration (IC50) of 0.29 µM. This IC50 is about 1.7-fold higher than that of the molecule before.

On to `O=C1CCC(N2Cc3cc4c(cc3C2=O)OCC42CCNCC2)C(=O)N1` (stereo not drawn) [Compound A1, 3-(7-oxo-5,7-dihydro-2H,6H-spiro[furo[2,3-f]isoindole-3,4′-piperidin]-6-yl)piperidine-2,6-dione], for which the IC50 came out at 0.94 µM.

The molecule `O=C1CC[C@H](N2Cc3c4c(cc(Cl)c3C2=O)C2(CCNCC2)CO4)C(=O)N1` [Compound A20, (S)-3-(5-chloro-6-oxo-6,8-dihydro-2H,7H-spiro[furo[2,3-e]isoindole-3,4′-piperidin]-7-yl)piperidine-2,6-dione] came in with an IC50 of 0.038 µM.

With `O=C1CC[C@H](N2Cc3c(ccc4c3OCC43CCNCC3)C2=O)C(=O)N1` [Compound A15, (S)-3-(6-oxo-6,8-dihydro-2H,7H-spiro[furo[2,3-e]isoindole-3,4′-piperidin]-7-yl)piperidine-2,6-dione], the half-inhibitory concentration (IC50) stood at 0.055 µM.

`COc1cc2c(c3c1C(=O)N([C@@H]1CCC(=O)NC1=O)C3)OCC21CCNCC1` [Compound A22, (R)-3-(5-methoxy-6-oxo-6,8-dihydro-2H,7H-spiro[furo[2,3-e]isoindole-3,4′-piperidin]-7-yl)piperidine-2,6-dione] registered an IC50 of 3.9 µM.

`CN1CCC2(CC1)OCCc1cc3c(cc12)CN(C1CCC(=O)NC1=O)C3=O` (stereo not drawn) [Compound A6, 3-(1-methyl-1′-oxo-1′,3′,7′,8′-tetrahydro-2′H-spiro[piperidine-4,5′-pyrano[3,4-f]isoindol]-2′-yl)piperidine-2,6-dione] yielded a half-maximal inhibitory concentration (IC50) of 2.2 µM. This IC50 is about 1.8-fold lower than that of the molecule before.

Consider `CC(=O)N1CCC2(CC1)COc1cc3c(cc12)CN(C1CCC(=O)NC1=O)C3=O` (stereo not drawn) [Compound A5, 3-(1′-acetyl-7-oxo-5,7-dihydro-2H,6H-spiro[furo[2,3-f]isoindole-3,4′-piperidin]-6-yl)piperidine-2,6-dione], for which the IC50 turned out to be 3.8 µM.

Turning to `CC(=O)N1CCC2(CC1)OCCc1cc3c(cc12)CN(C1CCC(=O)NC1=O)C3=O` (stereo not drawn) [Compound A7, 3-(1-acetyl-1′-oxo-1′,3′,7′,8′-tetrahydro-2′H-spiro[piperidine-4,5′-pyrano[3,4-f]isoindol]-2′-yl)piperidine-2,6-dione], the midpoint of inhibition, the IC50, lay at 3 µM.

`O=C1CCC(N2Cc3c(ccc4c3OCC43CCCNCC3)C2=O)C(=O)N1` (stereo not drawn) [Compound A8, 3-(6′-oxo-6′,8′-dihydro-2′H,7′H-spiro[azepane-4,3′-furo[2,3-e]isoindol]-7′-yl)piperidine-2,6-dione] showed an IC50 of 0.75 µM.

`Cc1cc2c(c3c1C(=O)N([C@H]1CCC(=O)NC1=O)C3)OCC21CCNCC1` [Compound A19, (S)-3-(5-methyl-6-oxo-6,8-dihydro-2H,7H-spiro[furo[2,3-e]isoindole-3,4′-piperidin]-7-yl)piperidine-2,6-dione] yielded an IC50 of 0.18 µM.

For another assay, the target named is T3, CBP (Homo sapiens, UniProt Q92793).
T3 construct: endogenous in cells; host or cells: 22Rv1
In words: CBP degradation, western blot, 22Rv1. The assay is classed as cell-based. To be noted: 22Rv1, 5 h. As to the method:
as §1
As to `CC(=O)N1CCc2c(c(N3CCCc4cc(-c5cnn(C)c5)c(C(F)F)cc43)nn2[C@H]2CC[C@H](CN3CCC4(CC3)COc3c4ccc4c3CN([C@H]3CCC(=O)NC3=O)C4=O)CC2)C1` [CPD-004, (S)-3-(1′-(((1r,4S)-4-(5-acetyl-3-(7-(difluoromethyl)-6-(1-methyl-1H-pyrazol-4-yl)-3,4-dihydroquinolin-1(2H)-yl)-4,5,6,7-tetrahydro-1H-pyrazolo[4,3-c]pyridin-1-yl)cyclohexyl)methyl)-6-oxo-6,8-dihydro-2H,7H-spiro[furo[2,3-e]isoindole-3,4′-piperidin]-7-yl)piperidine-2,6-dione], the “CBP Degradation DCmax” value is on record as “A (A (≥90%))” and the DC50 is below 0.0001 µM.

For `CC(=O)N1CCc2c(c(N3CCCc4cc(-c5cnn(C)c5)c(C(F)F)cc43)nn2C2CCN(CC(=O)N3CCC4(CC3)COc3c4ccc4c3CN([C@H]3CCC(=O)NC3=O)C4=O)CC2)C1` [CPD-001, (S)-3-(1′-(2-(4-(5-acetyl-3-(7-(difluoromethyl)-6-(1-methyl-1H-pyrazol-4-yl)-3,4-dihydroquinolin-1(2H)-yl)-4,5,6,7-tetrahydro-1H-pyrazolo[4,3-c]pyridin-1-yl)piperidin-1-yl)acetyl)-6-oxo-6,8-dihydro-2H,7H-spiro[furo[2,3-e]isoindole-3,4′-piperidin]-7-yl)piperidine-2,6-dione], the “CBP Degradation DCmax” value is listed as “A (A (≥90%))” and the DC50 was below 0.0001 µM.

As to `CC(=O)N1CCc2c(c(N3CCCc4cc(-c5cnn(C)c5)c(C(F)F)cc43)nn2C2CCN(C(=O)CN3CCC4(CC3)COc3c4ccc4c3CN([C@H]3CCC(=O)NC3=O)C4=O)CC2)C1` [CPD-002, (S)-3-(1′-(2-(4-(5-acetyl-3-(7-(difluoromethyl)-6-(1-methyl-1H-pyrazol-4-yl)-3,4-dihydroquinolin-1(2H)-yl)-4,5,6,7-tetrahydro-1H-pyrazolo[4,3-c]pyridin-1-yl)piperidin-1-yl)-2-oxoethyl)-6-oxo-6,8-dihydro-2H,7H-spiro[furo[2,3-e]isoindole-3,4′-piperidin]-7-yl)piperidine-2,6-dione], the “CBP Degradation DCmax” value is reported as “A (A (≥90%))” and the DC50 is below 0.0001 µM.
